The record followed here is patent US20240228482A1, “COMPOUNDS, COMPOSITIONS AND METHODS OF TREATING CANCER” (HOTSPOT THERAPEUTICS, INC., priority 2021, published 2024).

The target of this experiment is T1, CBL-B (Homo sapiens, UniProt Q13191).
T1 construct: GST
T1 sequence (Q13191 whole entry): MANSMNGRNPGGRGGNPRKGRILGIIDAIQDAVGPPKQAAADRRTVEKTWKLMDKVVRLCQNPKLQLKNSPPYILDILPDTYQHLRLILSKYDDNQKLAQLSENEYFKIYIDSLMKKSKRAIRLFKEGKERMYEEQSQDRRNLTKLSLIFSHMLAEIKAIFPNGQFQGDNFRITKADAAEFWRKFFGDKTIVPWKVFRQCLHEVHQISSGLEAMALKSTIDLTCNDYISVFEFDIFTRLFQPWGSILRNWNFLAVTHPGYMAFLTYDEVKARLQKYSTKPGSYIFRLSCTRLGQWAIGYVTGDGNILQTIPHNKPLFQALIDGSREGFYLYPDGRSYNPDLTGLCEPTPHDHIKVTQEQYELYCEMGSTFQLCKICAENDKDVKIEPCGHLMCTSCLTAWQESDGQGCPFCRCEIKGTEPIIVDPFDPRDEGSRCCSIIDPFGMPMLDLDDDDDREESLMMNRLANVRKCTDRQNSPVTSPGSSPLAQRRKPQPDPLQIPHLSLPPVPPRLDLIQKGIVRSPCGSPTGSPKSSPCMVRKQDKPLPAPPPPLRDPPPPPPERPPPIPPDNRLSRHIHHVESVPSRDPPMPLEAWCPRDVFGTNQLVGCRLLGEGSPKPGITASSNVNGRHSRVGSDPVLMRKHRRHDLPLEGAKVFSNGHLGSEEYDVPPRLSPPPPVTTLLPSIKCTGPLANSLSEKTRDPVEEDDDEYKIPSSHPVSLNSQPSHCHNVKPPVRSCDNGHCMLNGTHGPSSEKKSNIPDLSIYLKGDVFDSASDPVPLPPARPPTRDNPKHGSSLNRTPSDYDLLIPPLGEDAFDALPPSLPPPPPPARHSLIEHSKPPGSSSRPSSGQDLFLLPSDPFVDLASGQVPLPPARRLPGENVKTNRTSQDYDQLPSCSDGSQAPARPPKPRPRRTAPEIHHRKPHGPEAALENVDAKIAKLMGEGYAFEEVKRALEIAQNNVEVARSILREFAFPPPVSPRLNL
The experiment can be described thus: CBL-B TR-FRET IC50 screening (E1/E2 ubiquitination, Biotin-Ubiquitin, Anti GST-Tb donor / Streptavidin-d2 acceptor). As to conditions: second part of Table 2 (head 'Patent Cmpd No / Updated Activity'); same CBL-B TR-FRET IC50 bins A-F; read-out: Updated Activity. Type of experiment: biochemical. In general terms: Time-resolved FRET reads energy transfer from a long-lived donor to a nearby acceptor.
Regarding `Cn1cnnc1CC1(c2cccc(-n3cc4c(C(F)(F)F)cc(CN5CCC(OCCN)CC5)cn4c3=O)c2)COC1` [Compound 499], the IC50 was less than 0.1 µM.
`COCCn1ccnc1-c1cc(C(F)(F)F)c2cn(-c3cccc([C@H](c4nncn4C)C4CCC4)c3)c(=O)n2c1` [Compound 502]: the IC50 is less than 0.1 µM.
For `Cn1cnnc1[C@@H](c1cccc(-n2cc3c(C(F)(F)F)cc(CN4CCC5(CC4)CC5)cn3c2=O)c1)C1CCC1` [Compound 503], the IC50 was less than 0.1 µM.
For `[2H]C([2H])(c1cc(C(F)(F)F)c2cn(-c3cccc([C@H](c4nncn4C)C4CCC4)c3)c(=O)n2c1)N1CC2(CC2)C1` [Compound 504], the IC50 is less than 0.1 µM.
For the compound `[2H]C([2H])(c1cc(C(F)(F)F)c2cn(-c3cccc([C@H](c4nncn4C)C4CCC4)c3)c(=O)n2c1)N1CCC2(CC2)C1` [Compound 505], the IC50 is less than 0.1 µM.
Consider `C[C@H]1CCCN([C@H](C)c2cc(C(F)(F)F)c3cn(-c4cccc(C5(c6nncn6C)CCC5)c4)c(=O)n3c2)C1` [Compound 506_P1], for which the IC50 is less than 0.1 µM.
With `C[C@H]1CCCN([C@@H](C)c2cc(C(F)(F)F)c3cn(-c4cccc(C5(c6nncn6C)CCC5)c4)c(=O)n3c2)C1` [Compound 506_P2] the figure was less than 0.1 µM.
With `COC[C@@H]1CCN1Cc1cc(C(F)(F)F)c2cn(-c3cccc([C@H](c4nncn4C)C4CCC4)c3)c(=O)n2c1` [Compound 507] the figure was less than 0.1 µM; with `CN(Cc1cc(C(F)(F)F)c2cn(-c3cccc([C@H](c4nncn4C)C4CCC4)c3)c(=O)n2c1)S(C)(=O)=O` [Compound 520], less than 0.1 µM; with `COC(=O)CN(C)Cc1cc(C(F)(F)F)c2cn(-c3cccc([C@H](c4nncn4C)C4CCC4)c3)c(=O)n2c1` [Compound 521], less than 0.1 µM.
`CN(CC(=O)O)Cc1cc(C(F)(F)F)c2cn(-c3cccc([C@H](c4nncn4C)C4CCC4)c3)c(=O)n2c1` [Compound 522]: the IC50 was less than 0.1 µM.
With `CN1CCC2(CCN(Cc3cc(C(F)(F)F)c4cn(-c5cccc([C@H](c6nncn6C)C6CCC6)c5)c(=O)n4c3)CC2)C1=O` [Compound 523], the IC50 is less than 0.1 µM.
`Cn1cnnc1[C@@H](c1cccc(-n2cc3c(C(F)(F)F)cc(CN4CCC5(CCO5)CC4)cn3c2=O)c1)C1CCC1` [Compound 524]: the IC50 was less than 0.1 µM.
The value for `Cn1cnnc1[C@@H](c1cccc(-n2cc3c(C(F)(F)F)cc(CN4CCC5(CC4)COC5)cn3c2=O)c1)C1CCC1` [Compound 525] was less than 0.1 µM.
With `[2H]C([2H])(c1cc(C(F)(F)F)c2cn(-c3cccc([C@H](c4nncn4C)C4CCC4)c3)c(=O)n2c1)N1CCC(C)(F)CC1` [Compound 526] the figure was less than 0.1 µM; with `[2H]C([2H])(c1cc(C(F)(F)F)c2cn(-c3cccc([C@H](c4nncn4C)C4CCC4)c3)c(=O)n2c1)N1CCO[C@H](C)C1` [Compound 527], less than 0.1 µM.
`Cn1cnnc1[C@@H](c1cccc(-n2cc3c(C(F)(F)F)cc(CN4CCC5CC54)cn3c2=O)c1)C1CCC1` (some centres unmarked) [Compound 528]: the IC50 was less than 0.1 µM.
With `Cn1cnnc1[C@H](c1cc(-c2cnn[nH]2)cc(-n2cc3c(C(F)(F)F)cccn3c2=O)c1)C1CCC1` [Compound 535] the figure was 0.301 to 1 µM; with `Cn1cnnc1[C@@H](c1cc(-c2cnn[nH]2)cc(-n2cc3c(C(F)(F)F)cccn3c2=O)c1)C1CCC1` [Compound 536], greater than 10 µM; with `Cn1cnnc1[C@@H](c1cccc(-n2cc3c(C(F)(F)F)cc(CN4CCCS4(=O)=O)cn3c2=O)c1)C1CCC1` [Compound 541], less than 0.1 µM.
The value for `Cn1cnnc1[C@@H](c1cccc(-n2cc3c(C(F)(F)F)cc(CN4CCNS4(=O)=O)cn3c2=O)c1)C1CCC1` [Compound 542] was less than 0.1 µM; that for `Cn1cnnc1[C@@H](c1cccc(-n2cc3c(C(F)(F)F)cc(CN4CCCCS4(=O)=O)cn3c2=O)c1)C1CCC1` [Compound 543] was less than 0.1 µM; that for `Cn1cnnc1[C@@H](c1cccc(-n2cc3c(C(F)(F)F)cc(CN4CCCNS4(=O)=O)cn3c2=O)c1)C1CCC1` [Compound 544] was less than 0.1 µM.
The value for `Cn1cnnc1[C@@H](c1cccc(-n2cc3c(C(F)(F)F)cc(CN4CCC5(CCOC5=O)CC4)cn3c2=O)c1)C1CCC1` [Compound 545] was less than 0.1 µM; that for `[2H]C([2H])(c1cc(C(F)(F)F)c2cn(-c3cccc([C@H](c4nncn4C)C4COC4)c3)c(=O)n2c1)N1CCC[C@H](C)C1` [Compound 546] was less than 0.1 µM; that for `C[C@@H]1CCN1Cc1cc(C(F)(F)F)c2cn(-c3cccc([C@H](c4nncn4C)C4CCC4)c3)c(=O)n2c1` [Compound 547] was less than 0.1 µM.
With `COC[C@H]1CCN1Cc1cc(C(F)(F)F)c2cn(-c3cccc([C@H](c4nncn4C)C4CCC4)c3)c(=O)n2c1` [Compound 548], the IC50 was less than 0.1 µM.
Turning to `Cn1cnnc1[C@@H](c1cccc(-n2cc3c(C(F)(F)F)cc(CN4CC(C#N)C4)cn3c2=O)c1)C1CCC1` [Compound 549], the IC50 is less than 0.1 µM.
The value for `C[C@H]1CCCN(Cc2cc(C(F)(F)F)c3cn(-c4csc([C@@H](c5nncn5C)C5CCC5)c4)c(=O)n3c2)C1` [Compound 550_P1] was less than 0.1 µM; that for `C[C@H]1CCCN(Cc2cc(C(F)(F)F)c3cn(-c4csc([C@H](c5nncn5C)C5CCC5)c4)c(=O)n3c2)C1` [Compound 550_P2] was less than 0.1 µM; that for `Cn1cnnc1[C@@H](c1cccc(-n2cc3c(C(F)(F)F)cc(CN4NC(=O)CC45COC5)cn3c2=O)c1)C1CCC1` [Compound 561] was less than 0.1 µM.
With `CN1CCCN(Cc2cc(C(F)(F)F)c3cn(-c4cccc([C@H](c5nncn5C)C5CCC5)c4)c(=O)n3c2)S1(=O)=O` [Compound 562] the figure was less than 0.1 µM.
For the compound `C[C@H]1CCC[N+]([O-])(Cc2cc(C(F)(F)F)c3cn(-c4cccc([C@H](c5nncn5C)C5CCC5)c4)c(=O)n3c2)C1` (some centres unmarked) [Compound 563], the IC50 is less than 0.1 µM.
Turning to `Cn1cnnc1[C@@H](c1cccc(-n2cc3c(C(F)(F)F)cc(CN4CC(C)(C#N)C4)cn3c2=O)c1)C1CCC1` [Compound 564], the IC50 is less than 0.1 µM.
With `[2H]C([2H])(c1cc(C(F)(F)F)c2cn(-c3cccc([C@@H](c4nncn4C)C4COC4)c3)c(=O)n2c1)N1CCC[C@H](C)C1` [Compound 565_P1], the IC50 was greater than 10 µM.
Take `C[C@H]1CCN1Cc1cc(C(F)(F)F)c2cn(-c3cccc([C@H](c4nncn4C)C4CCC4)c3)c(=O)n2c1` [Compound 565_P2]: the IC50 was less than 0.1 µM.
`C[C@H]1CCCN(Cc2cc(C(F)(F)F)c3cn(-c4cccc([C@@H](c5n[nH]cc5C#N)C5CCC5)c4)c(=O)n3c2)C1` [Compound 566]: the IC50 was greater than 10 µM.
With `C[C@H]1CCCN(Cc2cc(C(F)(F)F)c3cn(-c4cccc([C@H](c5n[nH]cc5C#N)C5CCC5)c4)c(=O)n3c2)C1` [Compound 567] the figure was less than 0.1 µM; with `Cn1cnnc1[C@@H](c1cccc(-n2cc3c(C(F)(F)F)cc(CN4CCC[C@](C)(O)C4)cn3c2=O)c1)C1CCC1` [Compound 568], less than 0.1 µM.
With `Cn1cnnc1[C@@H](c1cccc(-n2cc3c(C(F)(F)F)cc(CN4CCN(S(C)(=O)=O)CC4)cn3c2=O)c1)C1CCC1` [Compound 572] the figure was less than 0.1 µM; with `CCS(=O)(=O)N(C)Cc1cc(C(F)(F)F)c2cn(-c3cccc([C@H](c4nncn4C)C4CCC4)c3)c(=O)n2c1` [Compound 590], less than 0.1 µM.
The value for `CCN(Cc1cc(C(F)(F)F)c2cn(-c3cccc([C@H](c4nncn4C)C4CCC4)c3)c(=O)n2c1)S(C)(=O)=O` [Compound 591] was less than 0.1 µM.
For `CCN(Cc1cc(C(F)(F)F)c2cn(-c3cccc([C@H](c4nncn4C)C4CCC4)c3)c(=O)n2c1)S(=O)(=O)CC` [Compound 592], the IC50 was less than 0.1 µM.
With `COCCN(Cc1cc(C(F)(F)F)c2cn(-c3cccc([C@H](c4nncn4C)C4CCC4)c3)c(=O)n2c1)S(C)(=O)=O` [Compound 593] the figure was less than 0.1 µM; with `COCCS(=O)(=O)N(C)Cc1cc(C(F)(F)F)c2cn(-c3cccc([C@H](c4nncn4C)C4CCC4)c3)c(=O)n2c1` [Compound 594], less than 0.1 µM.
The value for `CN(CCC(=O)O)Cc1cc(C(F)(F)F)c2cn(-c3cccc([C@H](c4nncn4C)C4CCC4)c3)c(=O)n2c1` [Compound 595] was less than 0.1 µM.
With `COC(=O)CCN(C)Cc1cc(C(F)(F)F)c2cn(-c3cccc([C@H](c4nncn4C)C4CCC4)c3)c(=O)n2c1` [Compound 596] the figure was less than 0.1 µM.
For `[2H]C([2H])(c1cc(C(F)(F)F)c2cn(-c3cccc([C@H](c4nncn4C)C4CCC4)c3)c(=O)n2c1)N1CCC[C@H](C(F)(F)F)C1` [Compound 597_P1], the IC50 is 3 to 10 µM.
The value for `[2H]C([2H])(c1cc(C(F)(F)F)c2cn(-c3cccc([C@H](c4nncn4C)C4CCC4)c3)c(=O)n2c1)N1CCC[C@@H](C(F)(F)F)C1` [Compound 597_P2] was less than 0.1 µM; that for `CN1CCN(Cc2cc(C(F)(F)F)c3cn(-c4cccc([C@H](c5nncn5C)C5CCC5)c4)c(=O)n3c2)S1(=O)=O` [Compound 608] was less than 0.1 µM.
On to `Cn1cnnc1[C@@H](c1cccc(-n2cc3c(C(F)(F)F)cc(CN4CCC5(CCNC5=O)CC4)cn3c2=O)c1)C1CCC1` [Compound 609], for which the IC50 was less than 0.1 µM.
On to `C[C@H](c1cc(C(F)(F)F)c2cn(-c3cccc([C@H](c4nncn4C)C4CCC4)c3)c(=O)n2c1)N(C)Cc1cncs1` [Compound 610_P1], for which the IC50 was less than 0.1 µM.
With `C[C@@H](c1cc(C(F)(F)F)c2cn(-c3cccc([C@H](c4nncn4C)C4CCC4)c3)c(=O)n2c1)N(C)Cc1cncs1` [Compound 610_P2] the figure was less than 0.1 µM.
With `COCCn1ccnc1-c1cc(C(F)(F)F)c2cn(-c3cccc(C4(c5nncn5C)CCC4)c3)c(=O)n2c1` [Compound 611] the figure was 0.1 to 0.3 µM; with `C[C@@H]1CN(Cc2cc(C(F)(F)F)c3cn(-c4cccc([C@@H](c5nncn5C)C5CC5)c4)c(=O)n3c2)CCO1` [Compound 612_P1], greater than 10 µM; with `C[C@@H]1CN(Cc2cc(C(F)(F)F)c3cn(-c4cccc([C@H](c5nncn5C)C5CC5)c4)c(=O)n3c2)CCO1` [Compound 612_P2], less than 0.1 µM.
